Type in all cases: cell-based
In one data set the test system is human fibroblasts. Put plainly: Lack of non specific toxicity on human fibroblasts, with or without red light. To be noted: DMEM 10% FCS, up to 40 μM. On the procedure:
The lack of non specific toxicity has been assessed by using human fibroblasts cultured for six days. Aliquots of the compound according to Ex. 4 at various concentrations have been added to cells in DMEM 10% FCS. After treatment the cell were irradiated for 10 min with red light (Intralux 4000 equipped with filter BP700/100Chroma Technology Corp.). In a parallel experiment cells were treated with the same amounts of compound of Ex. 4, however no light was provided.

Data set [1] has as its target T1, repeat D of type III FN like of human Tenascin (TN) (Homo sapiens, UniProt P24821).
T1 construct: determined by immunohystochemistry on human fibroblasts (GM6114); endogenous in cells; host or cells: human fibroblasts (GM6114)
The data set is described as follows: Binding specificity of labelled antibody by immunohystochemistry on human fibroblasts (GM6114). Conditions: shown by immunohystochemistry experiments. From the text:
Monoclonal Antibody α-D specific for the repeat D of type III FN like of human Tenascin (TN) (Balza et al. FEBS, 332,39 1993) has been labelled by using the compound of Ex. 4.
The labelling procedure has been carried out with the monoclonal bound to the Sepharose 4b immobilised antigen, represented from the recombinant TN containing repeats B,C,D type III FN-like.

Another data set deals with C. albicans. Put plainly: Photoinactivation of C. albicans (CFU vs. concentration, FIG. 1). From the text: FIG. 1 represents the variation of the colony forming units (CFU) of C. albicans vs. the concentration (μM) of the compounds according to Examples 7 and 8,indicated in the FIGURE as MRLP 090 and MRLP 091 respectively.
The following example refer to the activity against C. albicans.

T1 sequence (P24821 23-2201): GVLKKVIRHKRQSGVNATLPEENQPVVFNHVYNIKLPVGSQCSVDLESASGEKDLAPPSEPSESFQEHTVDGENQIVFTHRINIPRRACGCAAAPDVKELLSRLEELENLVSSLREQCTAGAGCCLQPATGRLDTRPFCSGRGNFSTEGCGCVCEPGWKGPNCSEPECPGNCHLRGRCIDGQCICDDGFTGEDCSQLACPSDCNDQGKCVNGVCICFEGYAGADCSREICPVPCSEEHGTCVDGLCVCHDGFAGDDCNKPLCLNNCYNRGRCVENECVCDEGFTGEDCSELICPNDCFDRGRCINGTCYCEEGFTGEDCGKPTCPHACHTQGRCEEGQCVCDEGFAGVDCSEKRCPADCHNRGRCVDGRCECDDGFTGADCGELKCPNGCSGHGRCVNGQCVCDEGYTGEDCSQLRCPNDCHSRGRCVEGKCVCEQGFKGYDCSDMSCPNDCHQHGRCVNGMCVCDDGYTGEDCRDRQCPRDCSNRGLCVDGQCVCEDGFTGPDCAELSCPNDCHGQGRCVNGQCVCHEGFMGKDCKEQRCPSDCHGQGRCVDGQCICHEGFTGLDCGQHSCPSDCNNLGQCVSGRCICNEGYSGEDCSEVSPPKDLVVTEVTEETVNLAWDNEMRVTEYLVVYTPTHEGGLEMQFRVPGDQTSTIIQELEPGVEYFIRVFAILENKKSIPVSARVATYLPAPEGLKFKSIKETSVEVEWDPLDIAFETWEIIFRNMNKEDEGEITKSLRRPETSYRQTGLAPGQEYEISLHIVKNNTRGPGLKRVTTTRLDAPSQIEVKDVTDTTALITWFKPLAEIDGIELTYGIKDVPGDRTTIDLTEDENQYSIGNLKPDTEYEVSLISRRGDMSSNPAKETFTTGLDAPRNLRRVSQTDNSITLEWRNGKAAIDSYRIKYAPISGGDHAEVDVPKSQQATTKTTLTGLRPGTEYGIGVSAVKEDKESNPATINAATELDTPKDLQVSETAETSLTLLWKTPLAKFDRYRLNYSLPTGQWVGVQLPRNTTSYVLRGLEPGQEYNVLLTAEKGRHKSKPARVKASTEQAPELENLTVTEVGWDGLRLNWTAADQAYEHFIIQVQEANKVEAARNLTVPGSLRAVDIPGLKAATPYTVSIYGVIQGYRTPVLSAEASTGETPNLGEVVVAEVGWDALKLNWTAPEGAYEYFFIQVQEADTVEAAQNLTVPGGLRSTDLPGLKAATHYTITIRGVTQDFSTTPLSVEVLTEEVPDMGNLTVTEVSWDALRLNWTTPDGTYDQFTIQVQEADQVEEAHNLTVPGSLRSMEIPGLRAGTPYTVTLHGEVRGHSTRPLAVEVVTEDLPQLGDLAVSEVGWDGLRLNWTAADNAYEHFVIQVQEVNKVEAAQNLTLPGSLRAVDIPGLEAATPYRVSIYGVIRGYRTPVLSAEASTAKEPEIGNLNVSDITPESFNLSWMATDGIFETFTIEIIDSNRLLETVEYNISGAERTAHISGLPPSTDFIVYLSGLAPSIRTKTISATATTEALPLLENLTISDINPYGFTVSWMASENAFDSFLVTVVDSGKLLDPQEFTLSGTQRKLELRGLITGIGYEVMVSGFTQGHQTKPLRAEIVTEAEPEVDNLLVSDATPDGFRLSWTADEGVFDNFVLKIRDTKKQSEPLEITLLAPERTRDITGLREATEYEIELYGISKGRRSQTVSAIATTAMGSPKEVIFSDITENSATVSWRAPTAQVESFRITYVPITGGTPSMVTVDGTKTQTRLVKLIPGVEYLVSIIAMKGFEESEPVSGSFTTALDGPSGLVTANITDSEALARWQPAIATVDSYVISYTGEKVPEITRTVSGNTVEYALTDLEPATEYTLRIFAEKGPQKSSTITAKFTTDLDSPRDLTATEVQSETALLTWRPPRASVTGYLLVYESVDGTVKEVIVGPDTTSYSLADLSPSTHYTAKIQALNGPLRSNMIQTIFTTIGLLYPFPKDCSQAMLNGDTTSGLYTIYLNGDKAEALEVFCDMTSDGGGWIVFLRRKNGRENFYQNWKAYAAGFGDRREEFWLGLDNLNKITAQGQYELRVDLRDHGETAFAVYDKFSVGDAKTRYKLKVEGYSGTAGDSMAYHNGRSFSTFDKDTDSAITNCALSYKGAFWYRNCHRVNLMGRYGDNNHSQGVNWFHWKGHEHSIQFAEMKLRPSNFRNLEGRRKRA

Consider “2-[(4-hydroxycarbonyl)phenoxy]-1(4),8(11),15(18),22(25)-tri[2 -(morfolin-1-yl) ethoxy] zinc(II)phthalocyanine [Example 4]”, for which the “mortality or morphology in comparison to not treated-not irradiated cells” value with human fibroblasts (irradiated 10 min with red light) and with human fibroblasts (no light provided) was “No differences in mortality or morphology” in each case. Moreover, the “aggregation or protein denaturation of the antibody on labelling” value in data set [1] is on record as “does not cause aggregation to occur or protein denaturation”.
Consider “2-[(4-hydroxycarbonyl)phenoxy]-8(11),15(18),22(25)-tri[3-(trimethylammonium) phenoxy]zinc(II) phthalocyanine triiodide [Example 8]”, for which the “photoinactivation of C. albicans (variation of colony forming units vs. concentration, μM)” value in the data set with C. albicans is listed as “photoinactivation”.
Same read-out and setting: to “2-[(4-hydroxycarbonyl)phenoxy]-9(10),16(17),23(24)-tri[3-(trimethylammonium) phenoxy]zinc(II)phthalocyanine triiodide [Example 7]” belongs “photoinactivation”.

Values taken from patent publication US7153841B2, “Metal substituted non-centrosimmetrical phthalocyanine analogues, their preparation and use in photodynamic therapy and in vivo diagnostic” (L. Molteni & C. Dei Fratelli Alitti Societa Di Esercizio …, priority 2001, dated 2006).
